Measured values reported in the supplement of paper PMC10307832.

Legend:
Assay in all cases: relative viability (nuclei count vs DMSO), 5 days (fraction); higher = more cells survive
Sunitinib + Luminespib = compound: CCN(CC)CCNC(=O)c1c(C)[nH]c(/C=C2\C(=O)Nc3ccc(F)cc32)c1C [Sunitinib] + CCNC(=O)c1noc(-c2cc(C(C)C)c(O)cc2O)c1-c1ccc(CN2CCOCC2)cc1 [Luminespib] (partner 0.01 µM)
Method in brief: (§1)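 Cells from lung cancer lines were seeded into 1536-well plates and, one day later, dosed by pin tool. Treatments were either a single drug or a fixed dose of an anchor drug with five library-drug doses (not always all listed) in √10 steps. After 5 days, nuclei were stained in a one-step fixation (final 0.05% Triton X-100, 1% formaldehyde, 1 ug/ml Hoechst) and counted on 4× images, and relative viability is the treated-to-vehicle nuclei ratio, as the median of duplicate plates.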

Sunitinib + Tozasertib = compound: CCN(CC)CCNC(=O)c1c(C)[nH]c(/C=C2\C(=O)Nc3ccc(F)cc32)c1C [Sunitinib] + Cc1cc(Nc2cc(N3CCN(C)CC3)nc(Sc3ccc(NC(=O)C4CC4)cc3)n2)n[nH]1 [Tozasertib] (partner 0.1 µM)
Method in brief: as §1

Sunitinib + Alpelisib = compound: CCN(CC)CCNC(=O)c1c(C)[nH]c(/C=C2\C(=O)Nc3ccc(F)cc32)c1C [Sunitinib] + Cc1nc(NC(=O)N2CCC[C@H]2C(N)=O)sc1-c1ccnc(C(C)(C)C(F)(F)F)c1 [Alpelisib] (partner 2 µM)
Method in brief: as §1

Sunitinib + Dasatinib = compound: CCN(CC)CCNC(=O)c1c(C)[nH]c(/C=C2\C(=O)Nc3ccc(F)cc32)c1C [Sunitinib] + Cc1nc(Nc2ncc(C(=O)Nc3c(C)cccc3Cl)s2)cc(N2CCN(CCO)CC2)n1 [Dasatinib] (partner 0.075 µM)
Method in brief: as §1

Row | Cell Line | relative viability (Sunitinib + Luminespib; first compound 0.02 µM) | relative viability (Sunitinib + Luminespib; first compound 0.06325 µM) | relative viability (Sunitinib + Luminespib; first compound 0.2 µM) | relative viability (Sunitinib + Luminespib; first compound 0.6325 µM) | relative viability (Sunitinib + Luminespib; first compound 2 µM) | relative viability (Sunitinib + Tozasertib; first compound 0.02 µM) | relative viability (Sunitinib + Tozasertib; first compound 0.06325 µM) | relative viability (Sunitinib + Tozasertib; first compound 0.2 µM) | relative viability (Sunitinib + Tozasertib; first compound 2 µM) | relative viability (Sunitinib + Alpelisib; first compound 0.02 µM) | relative viability (Sunitinib + Alpelisib; first compound 0.2 µM) | relative viability (Sunitinib + Alpelisib; first compound 2 µM) | relative viability (Sunitinib + Dasatinib; first compound 0.02 µM) | relative viability (Sunitinib + Dasatinib; first compound 0.06325 µM) | relative viability (Sunitinib + Dasatinib; first compound 0.2 µM) | relative viability (Sunitinib + Dasatinib; first compound 0.6325 µM) | relative viability (Sunitinib + Dasatinib; first compound 2 µM) | relative viability (Sunitinib + Tozasertib; first compound 0.6325 µM) | relative viability (Sunitinib + Alpelisib; first compound 0.06325 µM) | relative viability (Sunitinib + Alpelisib; first compound 0.6325 µM)
1 | 201T | 1.05 | 1.05 | 1.05 | 1.08 | 1.03 | 0.918 | 0.948 | 1.1 | 0.88 | 1.04 | 1.06 | 1.02 | 0.542 | 0.56 | 0.57 | 0.571 | 0.528 |  |  | 
2 | A-427 | 0.923 | 1.08 | 1.13 |  | 0.903 | 0.225 | 0.233 | 0.219 | 0.194 | 1.06 | 1.15 | 1.05 | 0.66 | 0.641 | 0.787 | 0.723 | 0.692 | 0.213 | 1.06 | 1.08
3 | ABC-1 | 0.407 | 0.609 | 0.533 | 0.622 | 0.861 | 0.187 | 0.189 | 0.172 | 0.154 | 1.08 | 1.2 | 0.837 | 0.561 | 0.609 | 0.495 | 0.513 | 0.49 | 0.18 | 0.994 | 1.26
4 | BEN | 0.414 | 0.453 | 0.396 | 0.53 | 0.333 | 0.526 | 0.426 | 0.576 | 0.466 | 0.898 | 1.04 | 0.955 | 0.31 | 0.301 | 0.277 | 0.38 | 0.309 | 0.61 | 1.1 | 0.991
5 | CAL-12T | 0.364 | 0.41 | 0.385 | 0.369 | 0.203 | 0.324 | 0.302 | 0.314 | 0.213 | 0.957 | 1.25 | 1.14 | 0.36 | 0.446 | 0.442 | 0.468 | 0.332 | 0.324 | 1.19 | 1.43
6 | COR-L23 | 0.647 | 0.658 | 0.881 | 0.831 | 0.57 | 0.19 | 0.217 | 0.196 | 0.176 | 0.897 | 0.935 | 0.891 | 0.489 | 0.522 | 0.622 | 0.533 | 0.542 | 0.215 | 0.724 | 0.917
7 | COR-L 105 | 0.665 | 0.706 | 0.744 | 0.914 | 0.686 | 0.365 | 0.378 | 0.371 | 0.41 | 0.925 | 1.04 | 0.829 | 0.316 | 0.361 | 0.286 | 0.379 | 0.543 | 0.401 | 0.835 | 1.23
8 | Calu-6 |  |  |  |  |  |  |  |  |  | 0.904 | 1.11 | 0.898 |  |  |  |  |  |  | 1.1 | 1.16
9 | ChaGo-K-1 | 0.587 | 0.662 | 0.784 | 0.709 | 0.724 | 0.211 | 0.209 | 0.209 | 0.191 |  |  |  | 0.529 | 0.753 | 0.575 | 0.571 | 0.598 | 0.237 |  | 
10 | EBC-1 |  |  |  |  |  |  |  |  |  | 0.857 | 0.871 | 1 |  |  |  |  |  |  | 0.971 | 0.87
11 | EKVX | 0.811 | 0.918 | 0.747 | 0.942 | 0.936 | 0.411 | 0.39 | 0.476 | 0.366 | 0.907 |  | 0.909 | 0.524 | 0.638 | 0.605 | 0.669 | 0.654 | 0.459 |  | 0.996
12 | EMC-BAC-2 | 1.11 | 1.2 | 1.11 | 1.16 | 1.14 | 0.264 | 0.297 | 0.308 | 0.332 | 0.712 | 0.901 | 0.72 | 0.318 | 0.336 | 0.383 | 0.344 | 0.36 | 0.289 | 0.742 | 0.791
13 | EPLC-272H | 0.364 | 0.38 | 0.561 | 0.582 | 0.262 | 0.382 | 0.333 | 0.285 | 0.318 | 0.885 | 1 | 0.729 | 0.385 | 0.418 | 0.374 | 0.409 | 0.333 | 0.196 | 0.668 | 1
14 | H3255 | 0.944 | 1.03 |  | 1.05 | 0.952 | 0.763 | 0.879 | 0.785 | 0.654 | 0.696 | 0.776 | 0.707 | 0.455 | 0.379 | 0.418 | 0.336 | 0.381 | 0.73 | 0.756 | 0.891
15 | HARA | 0.67 | 0.819 | 0.536 | 0.882 | 0.651 | 0.105 | 0.148 | 0.216 | 0.0991 | 0.816 | 0.979 | 0.743 | 0.2 | 0.254 | 0.278 | 0.286 | 0.302 | 0.076 | 0.947 | 
16 | HCC-15 | 0.251 | 0.278 | 0.347 | 0.255 | 0.227 | 0.407 | 0.371 | 0.468 | 0.651 | 0.831 | 1.01 | 0.94 | 0.549 | 0.709 | 0.726 | 0.66 | 0.598 | 0.411 |  | 0.872
17 | HCC-44 | 0.949 | 1.1 | 1.5 | 0.972 | 1.14 | 0.923 | 1.01 | 1.44 | 0.499 | 0.72 | 0.966 | 0.826 |  |  |  |  |  | 1.07 | 0.909 | 0.863
18 | HCC-78 |  |  |  |  |  | 0.411 | 0.502 | 0.548 | 0.43 | 0.364 | 0.321 | 0.419 | 0.39 | 0.313 | 0.329 | 0.315 | 0.358 | 1.43 |  | 
19 | HCC-366 |  |  |  |  |  | 0.12 | 0.0634 | 0.133 | 0.0457 | 0.353 | 0.656 | 0.431 | 0.526 | 0.645 | 0.622 | 0.668 | 0.574 | 0.0819 | 0.466 | 0.528
